# Experimental data published in PubChem BioAssay (NCI).
#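 In this assay, cells in 96-well plates receive the compound at five concentrations for 48 hours. Endpoints are linearly interpolated between the surrounding concentrations. GI50 marks 50% less growth. The concentration for full growth arrest is given as TGI.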
# Experiments:
# Experiment in all cases: DTP human tumour cell line panel, 48 h
# SNB-19 CNS = system: SNB-19 CNS
# HOP-92 NSCLC = system: HOP-92 NSCLC
# UACC-62 melanoma = system: UACC-62 melanoma
# NCI-H522 lung = system: NCI-H522 lung
# HCC-2998 colon = system: HCC-2998 colon
# RPMI-8226 leukemia = system: RPMI-8226 leukemia
# HCT-15 colon = system: HCT-15 colon
# 786-0 renal = system: 786-0 renal
# SF-539 CNS = system: SF-539 CNS
# SN12C renal = system: SN12C renal
# NCI-H226 lung = system: NCI-H226 lung
# A498 renal = system: A498 renal
# CAKI-1 renal = system: CAKI-1 renal
# BT-549 breast = system: BT-549 breast
# MALME-3M melanoma = system: MALME-3M melanoma
# NCI-H23 lung = system: NCI-H23 lung
# SF-295 CNS = system: SF-295 CNS
# COLO 205 colon = system: COLO 205 colon
# HL-60(TB) leukemia = system: HL-60(TB) leukemia
# OVCAR-3 ovarian = system: OVCAR-3 ovarian
# NCI/ADR-RES ovarian = system: NCI/ADR-RES ovarian
# DU-145 prostate = system: DU-145 prostate
# HS 578T breast = system: HS 578T breast
# SK-MEL-2 melanoma = system: SK-MEL-2 melanoma
# RXF 393 renal = system: RXF 393 renal
# HCT-116 colon = system: HCT-116 colon
# SK-MEL-5 melanoma = system: SK-MEL-5 melanoma
# OVCAR-4 ovarian = system: OVCAR-4 ovarian
# KM12 colon = system: KM12 colon
# TK-10 renal = system: TK-10 renal
# OVCAR-8 ovarian = system: OVCAR-8 ovarian
# M14 melanoma = system: M14 melanoma
# SNB-75 CNS = system: SNB-75 CNS
# CCRF-CEM leukemia = system: CCRF-CEM leukemia
# T-47D breast = system: T-47D breast
# MDA-MB-435 = system: MDA-MB-435
# PC-3 prostate = system: PC-3 prostate
# SW-620 colon = system: SW-620 colon
# HT29 colon = system: HT29 colon
# MCF7 breast = system: MCF7 breast
# NCI-H460 lung = system: NCI-H460 lung
# MDA-MB-231 breast = system: MDA-MB-231 breast
# MOLT-4 leukemia = system: MOLT-4 leukemia
# HOP-62 NSCLC = system: HOP-62 NSCLC
# A549 NSCLC = system: A549 NSCLC
# EKVX NSCLC = system: EKVX NSCLC
# ACHN renal = system: ACHN renal
# SK-OV-3 ovarian = system: SK-OV-3 ovarian
# LOX IMVI melanoma = system: LOX IMVI melanoma
# K-562 leukemia = system: K-562 leukemia
# UO-31 renal = system: UO-31 renal
# SF-268 CNS = system: SF-268 CNS
# OVCAR-5 ovarian = system: OVCAR-5 ovarian
# SK-MEL-28 melanoma = system: SK-MEL-28 melanoma
# U251 CNS = system: U251 CNS
structure (smiles),measurement,setting,value
Cc1c2c[n+](C(C)C)ccc2c(C)c2c1[nH]c1ccccc12,GI50,SNB-19 CNS,0.416 µM
same,TGI,SNB-19 CNS,14.7 µM
same,GI50,HOP-92 NSCLC,1.86 µM
same,TGI,HOP-92 NSCLC,6.95 µM
same,GI50,UACC-62 melanoma,2.7 µM
same,TGI,UACC-62 melanoma,15 µM
same,GI50,NCI-H522 lung,2.26 µM
same,TGI,NCI-H522 lung,11.4 µM
same,GI50,HCC-2998 colon,2.99 µM
same,TGI,HCC-2998 colon,13.7 µM
same,GI50,RPMI-8226 leukemia,1.82 µM
same,TGI,RPMI-8226 leukemia,13.1 µM
same,GI50,HCT-15 colon,52.1 µM
same,TGI,HCT-15 colon,> 100 µM
same,GI50,786-0 renal,1.53 µM
same,TGI,786-0 renal,> 100 µM
same,GI50,SF-539 CNS,1.62 µM
same,TGI,SF-539 CNS,16.4 µM
same,GI50,SN12C renal,0.32 µM
same,TGI,SN12C renal,11.8 µM
same,GI50,NCI-H226 lung,4.32 µM
same,TGI,NCI-H226 lung,41.5 µM
same,GI50,A498 renal,1.94 µM
same,TGI,A498 renal,64 µM
same,GI50,CAKI-1 renal,> 100 µM
same,TGI,CAKI-1 renal,> 100 µM
same,GI50,BT-549 breast,1.72 µM
same,TGI,BT-549 breast,11.2 µM
same,GI50,MALME-3M melanoma,1.48 µM
same,TGI,MALME-3M melanoma,6.9 µM
same,GI50,NCI-H23 lung,1.75 µM
same,TGI,NCI-H23 lung,15.7 µM
same,GI50,SF-295 CNS,1.32 µM
same,TGI,SF-295 CNS,20 µM
same,GI50,COLO 205 colon,1.77 µM
same,TGI,COLO 205 colon,6.46 µM
same,GI50,HL-60(TB) leukemia,3.13 µM
same,TGI,HL-60(TB) leukemia,19.2 µM
same,GI50,OVCAR-3 ovarian,2.61 µM
same,TGI,OVCAR-3 ovarian,12.2 µM
same,GI50,NCI/ADR-RES ovarian,56.5 µM
same,TGI,NCI/ADR-RES ovarian,> 100 µM
same,GI50,DU-145 prostate,4.74 µM
same,TGI,DU-145 prostate,54.1 µM
same,GI50,HS 578T breast,1.13 µM
same,TGI,HS 578T breast,19 µM
same,GI50,SK-MEL-2 melanoma,2.89 µM
same,TGI,SK-MEL-2 melanoma,9.81 µM
same,GI50,RXF 393 renal,6.19 µM
same,TGI,RXF 393 renal,> 100 µM
same,GI50,HCT-116 colon,4.36 µM
same,TGI,HCT-116 colon,68.2 µM
same,GI50,SK-MEL-5 melanoma,1.5 µM
same,TGI,SK-MEL-5 melanoma,3.89 µM
same,GI50,OVCAR-4 ovarian,2.61 µM
same,TGI,OVCAR-4 ovarian,15.4 µM
same,GI50,KM12 colon,1.14 µM
same,TGI,KM12 colon,10.9 µM
same,GI50,TK-10 renal,21.1 µM
same,TGI,TK-10 renal,> 100 µM
same,GI50,OVCAR-8 ovarian,1.46 µM
same,TGI,OVCAR-8 ovarian,32.1 µM
same,GI50,M14 melanoma,3.77 µM
same,TGI,M14 melanoma,17 µM
same,GI50,SNB-75 CNS,1.34 µM
same,TGI,SNB-75 CNS,40.9 µM
same,GI50,CCRF-CEM leukemia,3.97 µM
same,TGI,CCRF-CEM leukemia,38.7 µM
same,GI50,T-47D breast,1.48 µM
same,TGI,T-47D breast,6.64 µM
same,GI50,MDA-MB-435,3.2 µM
same,TGI,MDA-MB-435,13.2 µM
same,GI50,PC-3 prostate,2.59 µM
same,TGI,PC-3 prostate,40.6 µM
same,GI50,SW-620 colon,3.63 µM
same,TGI,SW-620 colon,49.7 µM
same,GI50,HT29 colon,3.15 µM
same,TGI,HT29 colon,58.8 µM
same,GI50,MCF7 breast,1.85 µM
same,TGI,MCF7 breast,14.8 µM
same,GI50,NCI-H460 lung,2.44 µM
same,TGI,NCI-H460 lung,10.9 µM
same,GI50,MDA-MB-231 breast,4.86 µM
same,TGI,MDA-MB-231 breast,43 µM
same,GI50,MOLT-4 leukemia,3.28 µM
same,TGI,MOLT-4 leukemia,17.8 µM
same,GI50,HOP-62 NSCLC,2.35 µM
same,TGI,HOP-62 NSCLC,36.1 µM
same,GI50,A549 NSCLC,2.55 µM
same,TGI,A549 NSCLC,> 100 µM
same,GI50,EKVX NSCLC,3.51 µM
same,TGI,EKVX NSCLC,53.9 µM
same,GI50,ACHN renal,22.6 µM
same,TGI,ACHN renal,> 100 µM
same,GI50,SK-OV-3 ovarian,3.19 µM
same,TGI,SK-OV-3 ovarian,39.8 µM
same,GI50,LOX IMVI melanoma,9.17 µM
same,TGI,LOX IMVI melanoma,32.1 µM
same,GI50,K-562 leukemia,2.72 µM
same,TGI,K-562 leukemia,29 µM
same,GI50,UO-31 renal,20.6 µM
same,TGI,UO-31 renal,> 100 µM
same,GI50,SF-268 CNS,0.475 µM
same,TGI,SF-268 CNS,14.9 µM
same,GI50,OVCAR-5 ovarian,5.95 µM
same,TGI,OVCAR-5 ovarian,> 100 µM
same,GI50,SK-MEL-28 melanoma,2.25 µM
same,TGI,SK-MEL-28 melanoma,12.9 µM
same,GI50,U251 CNS,0.456 µM
same,TGI,U251 CNS,15.2 µM
